Patent publication EP0781773A1, “NOVEL CARBAPENEM DERIVATIVE” (BANYU PHARMACEUTICAL CO., LTD., priority 1994, dated 1996)
≈ marks a conversion by molar mass, not a printed value. Where “and” joins values, the source holds several entries; their conditions need not be identical. Equal entries are not always repeated.

What was measured:
P.mirabilis MB4955 = test: In vitro antibacterial activity, agar plate dilution method (MIC); assay type: cell-based; settings: Proteus mirabilis, MH agar, inoculum 10^6CFU/ml, 37 °C, 16 hours, read-out: Minimum inhibitory Concentration (MIC)
Procedure: (§1) One platinum loopful (inoculum : 10^6CFU/ml) of each test microorganism cultured overnight in Mueller Hinton broth was inoculated into Mueller Hinton agars (MH agar). These media contained an antimicrobial agent in various concentrations. Each test microorganism was cultured at 37 °C for 16 hours, and then the minimum inhibitory concentration (MIC: µg/ml) was assayed. Accordingly, the minimum inhibitory concentrations of compounds of the invention were assayed.

S.aureus BB5939 = test: as above; assay type: cell-based; settings: Staphylococcus aureus; S.aureus BB5939 (β-lactamase-producing bacterium); MH agar, inoculum 10^6CFU/ml, 37 °C, 16 hours; read-out: Minimum inhibitory Concentration (MIC)
Procedure: as §1

S.aureus JS1 = test: as above; assay type: cell-based; settings: Staphylococcus aureus, MH agar, inoculum 10^6CFU/ml, 37 °C, 16 hours, read-out: Minimum inhibitory Concentration (MIC)
Procedure: as §1

S.aureus MB4970 = test: as above; assay type: cell-based; settings: Staphylococcus aureus, MH agar, inoculum 10^6CFU/ml, 37 °C, 16 hours, read-out: Minimum inhibitory Concentration (MIC)
Procedure: as §1

ICR male mice = test: Acute toxicity in mice; assay type: in vivo; settings: once into the tail vein, observed 5 days
Procedure: The compound of Example I-26 was used as a representative compound. The test compound was diluted with distilled water for injection so that the drug liquid concentration became 60.75 mg/ml, and administered once, in an administration rate of 10 to 20 µl/min, into the tail vein of each of 4-week-old ICR male mice, according to "Commentary on GLP Standard and Toxicity Test Method Guidline" (supervised by the Examination Section, Drug Secretariat, the Ministry of Welfare; Yakuji-Nippo Co.). The state of death and the general symptoms of mobility were observed over a period of 5 days after the administration.

SD rats = test: Toxicity test on the central nervous system in rats; settings: 200 µg/rat into the lateral ventricle, n=5, observed for 30 minutes
From the text: A chronic guide cannula was inserted into the right lateral ventricle of each of 7-week-old male SD rats (n=5), and fixed by a dental range.

S.aureus CSa929 = test: Agar plate dilution method (MIC), media supplemented with 2 % sodium chloride; assay type: cell-based; settings: Staphylococcus aureus, 35 °C, 48 hours, read-out: Minimum inhibitory Concentration (MIC)
Procedure: (§2) One platinum loopful (inoculum : 10^6CFU/ml) of each test microorganism cultured overnight in Mueller Hinton broth was inoculated into Mueller Hinton agars (MH agar). These media contained an antimicrobial agent in various concentrations. […] Accordingly, the minimum inhibitory concentrations of compounds of the invention were assayed. Table 1 The minimum inhibitory concentrations (MIC: µg/ml) of compounds of the invention were assayed according to the above agar plate dilution method using the media supplemented with 2 % sodium chloride as test media and using the culture conditions of 35 °C and 48 hours.

S.aureus MB5393 = test: as above; assay type: cell-based; settings: Staphylococcus aureus, 35 °C, 48 hours, read-out: Minimum inhibitory Concentration (MIC)
Procedure: as §2

white rabbits = test: Renal toxicity test using white rabbits; assay type: in vivo; settings: for Blood urea nitrogen before administration / Creatinine before administration: just before the administration (baseline)
Procedure: The compound of Example I-72 was made into a liquid with sterilized distilled water for injection so that the drug liquid concentration became 10 %, and intraperitoneally administered once in a dose of 225 mg/kg into 18-week-old male white rabbits from Japan (n=3 per each group). As for a control group, 0.9 % physiological saline was intraperitoneally administered once in the same manner as above. Serum urea nitrogen and creatinine were assayed just before the administration and about 48 hours after the administration. After the blood drawing, each rabbit was killed with leaving them alone under anesthetization and roughly observed, and then autopsy was carried out only on the kidney fixed with neutral 10 % formalin buffer. Each kidney preparation was prepared by a usual method, stained with hematoxylin and eosin and observed by a microscope.

[1] = Mean, n=3, about 48 hours after 225 mg/kg intraperitoneally once
[2] = individual rabbit, about 48 hours after 225 mg/kg intraperitoneally once
[3] = individual rabbit, 225 mg/kg intraperitoneally once, 225 mg/kg

Structure (SMILES)	MIC (P.mirabilis MB4955) [µg/mL]	MIC (S.aureus BB5939) [µg/mL]	MIC (S.aureus JS1) [µg/mL]	MIC (S.aureus MB4970) [µg/mL]	other results
C[C@@H](O)[C@H]1C(=O)N2C(C(=O)O)=C(SC(=S)N3CCCC(O)CC3)[C@H](C)[C@H]12 (stereo partly drawn) [Example I-26]	0.05 (≈ 0.125 µM)	0.78 (≈ 1.95 µM)	0.2 (≈ 0.499 µM)	0.012 (≈ 0.03 µM)	General symptoms of mobility (ICR male mice; 1000 mg/kg): No abnomality; Surviving number (ICR male mice; 1000 mg/kg): 2/2; General symptoms of mobility (ICR male mice; 1500 mg/kg): No abnomality; Surviving number (ICR male mice; 1500 mg/kg): 2/2; General symptoms of mobility (ICR male mice; 2000 mg/kg): No abnomality; Surviving number (ICR male mice; 2000 mg/kg): 1/1; Case of death (SD rats): 0/5
CNCC(=O)N1CCN(C(=S)SC2=C(C(=O)O)N3C(=O)[C@H]([C@@H](C)O)[C@H]3[C@H]2C)CC1 [Example I-41]	0.1 (≈ 0.226 µM)	0.39 (≈ 0.881 µM)	0.1 (≈ 0.226 µM)	≤ 0.006	
C[C@@H](O)[C@H]1C(=O)N2C(C(=O)O)=C(SC(=S)N3CCc4ccccc43)[C@H](C)[C@H]12 [Example I-51]					MIC (S.aureus CSa929): 0.39 µg/mL (≈ 0.964 µM); MIC (S.aureus MB5393): 0.39 µg/mL (≈ 0.964 µM)
C[C@@H](O)[C@H]1C(=O)N2C(C(=O)O)=C(SC(=S)N(C)C)[C@H](C)[C@H]12 [Example I-63]	0.1 (≈ 0.303 µM)	1.56 (≈ 4.72 µM)	0.2 (≈ 0.605 µM)	25 (≈ 75.7 µM)	
C[C@@H](O)[C@H]1C(=O)N2C(C(=O)O)=C(SC(=S)N(C)CCO)[C@H](C)[C@H]12 [Example I-72]	0.05 (≈ 0.139 µM)	1.56 (≈ 4.33 µM)	0.1 (≈ 0.277 µM)	0.025 (≈ 0.0694 µM)	Blood urea nitrogen after administration (white rabbits; [1]): 18.1 mg/dL; Creatinine after administration (white rabbits; [1]): 1.4 mg/dL; Blood urea nitrogen before administration (white rabbits; Mean, n=3): 17.4 mg/dL; Creatinine before administration (white rabbits; Mean, n=3): 1.3 mg/dL; Blood urea nitrogen after administration (white rabbits; [2]): 16.8 mg/dL and 16.6 mg/dL and 20.8 mg/dL; Creatinine after administration (white rabbits; [2]): 1.3 mg/dl (2×) and 1.5 mg/dl; Blood urea nitrogen before administration (white rabbits; [3]): 15.8 mg/dL and 16.8 mg/dL and 19.6 mg/dL; Creatinine before administration (white rabbits; [3]): 1.2 mg/dL and 1.3 mg/dL and 1.4 mg/dL; Opinion based on the autopsy (white rabbits; individual rabbit, kidney, about 48 hours after 225 mg/kg intraperitoneally once): no abnormality
C[C@@H](O)[C@H]1C(=O)N2C(C(=O)O)=C(SC(=S)N3Cc4ccc(C[N+]56CC[N+](CC(N)=O)(CC5)CC6)cc4C3)[C@H](C)[C@H]12 [Example III-2]	0.2	0.39	0.1	≤ 0.006	
C[C@@H](O)[C@H]1C(=O)N2C(C(=O)O)=C(SC(=S)N3CC=C(CN)CC3)[C@H](C)[C@H]12 [Example IV-5]	0.05 (≈ 0.126 µM)	0.39 (≈ 0.981 µM)	0.1 (≈ 0.252 µM)	≤ 0.006	
